Article PMC3776838, “Detection of Phospho-Sites Generated by Protein Kinase CK2 in CFTR: Mechanistic Aspects of Thr1471 Phosphorylation” (PLoS ONE, 2013)
“Also recorded” adds a separate entry of the source.

What was measured:
[1] = tested on: CFTR T1471A; assay: De novo synthesized CFTR level after CHX wash-out with CK2 inhibitor, T1471A; assay type: cell-based, human; conditions: BHK cells; 2 h CHX 100 µg/mL, washed, then 2 µM CX4945 for 2, 4, 8 h; Western blot; vs vehicle; Figure 5B
Procedure: (§1) Baby hamster kidney cells (BHK) stably expressing human CFTR (hCFTR) either wild type (WT), or Phe508del, or WT T1471A were growth to reach 70–80% confluency. After 2 h-long treatment with 100 µg/mL cyclohexamide, cells were washed with PBS and incubated with 2 µM CX4945 or its vehicle for the indicated time. At each time-point cells were washed with ice-cold PBS, scraped from the plates, pelleted by centrifugation (1200 g for 5 min at room tempertaure) and lysed in a buffer containing 1% (v/v) Nonidet P40, 50 mM Tris/HCl (pH 7.5) and 150 mM NaCl with fresh protease inhibitor tablets (Roche), 1 µM Okadaic acid (Alexis) and phosphatases inhibitors cocktails 2 and 3 (Sigma). Cells were lysed by incubation on ice for 30 min and then the lysates were cleared by centrifugation at 17000 g for 30 min at 4°C. The supernatant was collected and subjected to protein concentration quantification.
(§2) Western blot analysis was performed as described in [14] using a modified Laemmli buffer containing 105 mM dithiothreitol (final concentration) to enhance the solubilization of CFTR. […] Immunoblots were developed by enhanced chemiluminescence, detected on Kodak Image Station 440 cf and analyzed by the Kodak 1D image software. […]

[2] = tested on: CFTR wild type; assay: De novo synthesized CFTR level after CHX wash-out with CK2 inhibitor, wild type; assay type: cell-based, human; conditions: BHK cells, 2 h CHX 100 µg/mL, washed, then 2 µM CX4945 for 2, 4, 8 h, Western blot, vs vehicle, Figure 5A
Procedure: as §1, §2

[3] = tested on: Phe508delCFTR; assay: De novo synthesized CFTR level after CHX wash-out with CK2 inhibitor, Phe508del; assay type: cell-based, human; conditions: BHK cells, washed; for effect on de novo synthesis / accumulation of Phe508delCFTR: 2 h CHX 100 µg/mL, then 2 µM CX4945 for 2, 4, 8 h, Western blot, vs vehicle, Figure 5C
Procedure: as §1
Western blot analysis was performed as described in [14] using a modified Laemmli buffer containing 105 mM dithiothreitol (final concentration) to enhance the solubilization of CFTR. 20–30 µg of total proteins were separated on 4–12% precast NuPage® Bis-Tris gradient gels (Invitrogen) according to the manufacturer’s instructions and transferred on to Optitran BA-S 83 nitrocellulose membranes (Whatman) with a semi-dry blotter (Biometra) for 1 h at 150 mA. Membranes were saturated for 1 h with 5% skimmed milk in Tris-buffered saline (TBS) containing 0.2% Tween 20. Immunoblots were developed by enhanced chemiluminescence, detected on Kodak Image Station 440 cf and analyzed by the Kodak 1D image software. […]
In order to evaluate the efficacy of CX4945 on the level of de novo synthesized CFTR, protein synthesis was inhibited by two hours cell treatment with cycloheximide (CHX). Blockade was then removed by washing off CHX and newly synthesized CFTR was quantified after 2, 4, and 8 hrs incubation either in the absence or presence of CX4945. […] This point has been corroborated by performing the experiment in triplicate and drawing from it quantification of Phe508delCFTR band B, as reported in Panel D.

[4] = tested on: CK2; design: method as in PMID 21870818; conditions: ref [43]; cited from earlier work

Structure (SMILES): O=C(O)c1ccc2c(c1)nc(Nc1cccc(Cl)c1)c1ccncc12 [CX4945]
- effect on de novo synthesis of CFTR T1471A [1]: a similar effect of CX4945 being also detectable; also recorded: a similar effect of CX4945 was observed with CFTR wild type and its T1471A mutant
- effect on de novo synthesis / accumulation of CFTR wild type [2]: accumulates more abundantly than in the absence of CK2 inhibitor; also recorded: de novo synthesis of CFTR wild type is significantly stimulated
- effect on de novo synthesis / accumulation of CFTR wild type ([2]; listed as CX-4945): the re-appearance of CFTR reached higher levels
- effect on de novo synthesis / accumulation of Phe508delCFTR [3]: the efficacy of inhibiting CK2 is enhanced
- effect on de novo synthesis / accumulation of Phe508delCFTR ([3]; listed as CX-4945): definitely more pronounced in the case of Phe508delCFTR
- increment of Phe508delCFTR band B ([3]; 2 h CHX, then 2 µM CX4945 vs vehicle, Western blot quantitation, experiments in triplicate, Figure 5D): two to three
- selectivity for CK2 [4]: the most selective CK2 inhibitor available to date
